Activity calls are given as the source filed them. The calls are words filed in the database; no cut-off is given here.

The values below come from ChEMBL document CHEMBL4421719, “Modulation of k2p channels” (2016).

What all share (type): cell-based
The target of test [1] is T1, Potassium channel subfamily K member 2 (Homo sapiens, UniProt O95069).
T1 sequence (O95069 whole entry): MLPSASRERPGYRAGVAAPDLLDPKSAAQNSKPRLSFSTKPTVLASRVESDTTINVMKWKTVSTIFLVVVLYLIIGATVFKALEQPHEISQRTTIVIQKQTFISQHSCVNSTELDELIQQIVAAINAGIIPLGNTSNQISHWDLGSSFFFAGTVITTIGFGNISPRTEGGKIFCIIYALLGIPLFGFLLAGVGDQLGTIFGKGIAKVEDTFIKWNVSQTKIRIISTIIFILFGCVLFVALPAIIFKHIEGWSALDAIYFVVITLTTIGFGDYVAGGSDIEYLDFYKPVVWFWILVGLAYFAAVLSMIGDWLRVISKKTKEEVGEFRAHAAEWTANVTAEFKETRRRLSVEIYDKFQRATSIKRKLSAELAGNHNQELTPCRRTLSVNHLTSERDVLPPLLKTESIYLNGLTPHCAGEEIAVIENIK
Nature of the test: Activation of K2P2.1 (unknown origin) expressed in Xenopus oocytes assessed as effect on channel currents at -80 mV holding potential by two-electrode voltage clamp assay.

For test [2], the target named is T2, Potassium channel subfamily K member 2 (Homo sapiens) (UniProt O95069).
T2 sequence (whole entry): T1 sequence (O95069 whole entry)
Nature of the test: Activation of K2P2.1 (unknown origin) expressed in HEK293T cells assessed as effect on channel currents at -40 mV holding potential by two-electrode voltage clamp assay relative to control. A general note: In two-electrode clamp one electrode senses voltage and the other passes current.

In test [3] the target is T3, Potassium channel subfamily K member 18 (Homo sapiens) (UniProt Q7Z418).
T3 sequence (whole entry): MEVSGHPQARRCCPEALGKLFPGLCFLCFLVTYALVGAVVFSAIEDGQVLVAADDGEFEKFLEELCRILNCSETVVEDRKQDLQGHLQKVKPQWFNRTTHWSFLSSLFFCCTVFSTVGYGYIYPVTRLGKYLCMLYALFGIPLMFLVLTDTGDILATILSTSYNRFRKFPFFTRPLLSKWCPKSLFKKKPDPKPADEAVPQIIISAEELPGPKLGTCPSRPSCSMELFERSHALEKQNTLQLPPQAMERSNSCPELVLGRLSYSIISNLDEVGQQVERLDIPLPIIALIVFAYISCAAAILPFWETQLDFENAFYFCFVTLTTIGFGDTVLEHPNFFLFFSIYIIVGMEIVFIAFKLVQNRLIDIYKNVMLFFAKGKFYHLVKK
Nature of the test: Activation of K2P18.1 (unknown origin) expressed in Xenopus oocytes assessed as effect on channel currents at -80 mV holding potential by two-electrode voltage clamp assay relative to control.

In test [4] the target is T2, Potassium channel subfamily K member 2 (Homo sapiens). In words: Activation of K2P2.1 (unknown origin) expressed in whole HEK293T cells assessed as effect on channel currents by measuring time of return to baseline following compound washout at 20 uM by two-electrode voltage clamp assay relative to control.
The target is the same in test [5]. In words: Activation of K2P2.1 (unknown origin) expressed in HEK293T cells assessed as effect on channel currents at -40 mV holding potential at 100 uM by two-electrode voltage clamp assay relative to control.
The target is the same in test [6]. In words: Activation of K2P2.1 (unknown origin) expressed in HEK293T cell membranes in outside-out patch configuration assessed as effect on channel currents at 20 uM by two-electrode voltage clamp assay relative to control.
For test [7], the target named is Potassium voltage-gated channel subfamily KQT member 2 (Homo sapiens) (UniProt O43526). In words: Activation of Kv7.2 (unknown origin) expressed in Xenopus oocytes assessed as effect on channel currents at 100 uM at -80 mV holding potential by two-electrode voltage clamp assay relative to control.
The target in test [8] is T2, Potassium channel subfamily K member 2 (Homo sapiens). Nature of the test: Activation of K2P2.1 (unknown origin) expressed in HEK293T cell membranes in outside-out patch configuration assessed as effect on channel currents by measuring time of half-maximal activation at 20 uM by two-electrode voltage clamp assay relative to control.
The subject of test [9] is Potassium channel subfamily K member 2 (Homo sapiens), O95069 [UNDEFINED MUTATION]. Nature of the test: Activation of K2P2.1 W275S mutant (unknown origin) expressed in Xenopus oocytes assessed as effect on channel currents at -80 mV holding potential by two-electrode voltage clamp assay relative to control.
The nature of test [10]: Activation of K2P2.1 3G mutant (unknown origin) expressed in Xenopus oocytes assessed as effect on channel currents at -80 mV holding potential by two-electrode voltage clamp assay. As to conditions: Homo sapiens.
The target of test [11] is T2, Potassium channel subfamily K member 2 (Homo sapiens). Nature of the test: Activation of K2P2.1 (unknown origin) expressed in Xenopus oocytes assessed as effect on channel currents at -80 mV holding by two-electrode voltage clamp assay relative to control.
The target of test [12] is Potassium channel subfamily K member 2 (Homo sapiens, UniProt O95069, W275S). Nature of the test: Activation of K2P2.1 W275S mutant (unknown origin) expressed in Xenopus oocytes assessed as effect on channel currents at -80 mV holding potential by two-electrode voltage clamp assay.
Test [13] concerns the target T4, Potassium channel subfamily K member 4 (Homo sapiens) (UniProt Q9NYG8).
T4 sequence (whole entry): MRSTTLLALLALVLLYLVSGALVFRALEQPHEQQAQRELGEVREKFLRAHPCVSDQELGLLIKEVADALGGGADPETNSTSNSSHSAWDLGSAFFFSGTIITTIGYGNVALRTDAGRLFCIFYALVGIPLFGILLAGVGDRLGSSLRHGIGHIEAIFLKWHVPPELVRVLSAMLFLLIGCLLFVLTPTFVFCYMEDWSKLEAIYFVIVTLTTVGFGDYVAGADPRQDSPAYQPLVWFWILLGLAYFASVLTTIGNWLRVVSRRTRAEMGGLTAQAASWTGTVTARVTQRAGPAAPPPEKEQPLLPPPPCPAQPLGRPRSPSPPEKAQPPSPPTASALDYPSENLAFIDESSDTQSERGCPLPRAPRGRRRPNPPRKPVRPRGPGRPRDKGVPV
Nature of the test: Activation of K2P4.1 (unknown origin) expressed in Xenopus oocytes assessed as effect on channel currents at -80 mV holding potential at 100 uM by two-electrode voltage clamp assay relative to control.

Test [14] addresses T2, Potassium channel subfamily K member 2 (Homo sapiens). Nature of the test: Activation of K2P2.1 (unknown origin) expressed in HEK293T cell membranes in inside-out patch configuration assessed as effect on channel currents at 20 uM by two-electrode voltage clamp assay relative to control.
Test [15] deals with Potassium channel subfamily K member 3 (Homo sapiens) (UniProt O14649). Nature of the test: Activation of K2P3.1 (unknown origin) expressed in Xenopus oocytes assessed as effect on channel currents at -80 mV holding potential at 100 uM by two-electrode voltage clamp assay relative to control.
Test [16] deals with T2, Potassium channel subfamily K member 2 (Homo sapiens). In words: Activation of K2P2.1 (unknown origin) expressed in Xenopus oocytes assessed as effect on channel currents at -80 mV holding at 100 uM by two-electrode voltage clamp assay relative to control.
The species named for a further test is Homo sapiens. Nature of the test: Activation of K2P2.1 3G mutant (unknown origin) expressed in Xenopus oocytes assessed as effect on channel currents at -80 mV holding potential by two-electrode voltage clamp assay relative to control.
The subject of test [17] is Potassium channel subfamily K member 2 (Homo sapiens), O95069 [UNDEFINED MUTATION]. In words: Activation of K2P2.1 W275S mutant (unknown origin) expressed in Xenopus oocytes assessed as effect on channel currents at 50 uM at -80 mV holding potential by two-electrode voltage clamp assay.

Chain of Potassium channel subfamily K member 3 (Homo sapiens) (O14649 whole entry, looked up): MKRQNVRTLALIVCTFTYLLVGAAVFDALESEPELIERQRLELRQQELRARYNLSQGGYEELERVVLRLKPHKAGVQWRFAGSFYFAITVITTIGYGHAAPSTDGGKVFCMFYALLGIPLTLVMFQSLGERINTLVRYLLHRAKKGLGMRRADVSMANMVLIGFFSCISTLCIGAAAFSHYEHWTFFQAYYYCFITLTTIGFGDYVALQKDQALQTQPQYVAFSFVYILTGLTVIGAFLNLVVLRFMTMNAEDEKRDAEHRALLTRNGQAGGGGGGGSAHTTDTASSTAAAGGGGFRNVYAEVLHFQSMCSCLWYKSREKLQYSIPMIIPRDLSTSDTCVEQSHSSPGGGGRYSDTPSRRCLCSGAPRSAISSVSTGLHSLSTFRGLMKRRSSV
Chain of Potassium voltage-gated channel subfamily KQT member 2 (Homo sapiens) (O43526 whole entry): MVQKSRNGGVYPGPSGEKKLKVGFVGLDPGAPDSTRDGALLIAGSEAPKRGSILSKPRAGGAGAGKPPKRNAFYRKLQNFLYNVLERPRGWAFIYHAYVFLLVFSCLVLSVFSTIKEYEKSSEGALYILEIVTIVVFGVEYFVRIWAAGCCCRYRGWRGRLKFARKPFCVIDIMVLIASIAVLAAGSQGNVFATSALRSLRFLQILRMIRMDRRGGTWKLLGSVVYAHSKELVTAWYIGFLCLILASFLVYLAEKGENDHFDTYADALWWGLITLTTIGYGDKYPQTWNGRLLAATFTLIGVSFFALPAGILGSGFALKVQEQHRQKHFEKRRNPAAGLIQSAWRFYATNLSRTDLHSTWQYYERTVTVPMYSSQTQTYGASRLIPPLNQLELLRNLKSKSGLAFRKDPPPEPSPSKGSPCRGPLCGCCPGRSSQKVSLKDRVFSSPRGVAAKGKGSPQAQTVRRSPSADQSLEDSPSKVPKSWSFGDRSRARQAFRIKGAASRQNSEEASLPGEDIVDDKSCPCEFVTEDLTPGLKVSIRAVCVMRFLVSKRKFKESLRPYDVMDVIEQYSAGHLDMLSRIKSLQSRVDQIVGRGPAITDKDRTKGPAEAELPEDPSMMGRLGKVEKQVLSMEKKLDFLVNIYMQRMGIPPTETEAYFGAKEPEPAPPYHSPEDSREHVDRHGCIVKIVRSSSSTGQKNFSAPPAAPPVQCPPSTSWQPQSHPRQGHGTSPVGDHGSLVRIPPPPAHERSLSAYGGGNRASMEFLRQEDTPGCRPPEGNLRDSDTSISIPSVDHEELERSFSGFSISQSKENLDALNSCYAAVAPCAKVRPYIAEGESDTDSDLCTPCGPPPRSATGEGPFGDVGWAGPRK

The EC50 is the concentration at which the effect is half-maximal. Consider `CC1(C)c2cc(Cl)ccc2N(CCc2nnn[nH]2)c2ccc(Cl)cc21`, for which the results for the EC50 in test [1], in test [10] and in [12] were 36.3 to 38.5 µM, 49.4 µM and 21.8 µM, respectively. Besides, the Emax was 11.4 in [2]; 0.9 in [3]; 11.4% in [5]; 5.1 in [9]; 11.1 to 11.4 in [11]; 14.7% in test [13]. In addition, the Emax in test [15] was determined as 1.1%; in test [16] it was 11.1%; in the test filed under Homo sapiens, 12.9. Further, the T1/2 in test [4] is 3.9 s; in test [8] it was 4.6 s. The outcome in test [6] and in test [14] was Active. The result in test [7] and in test [17] was inactive.
